# Measurements: patent US8507493B2 (AbbVie Inc., priority 2009, dated 2013)
# Target: T1, human 11β-HSD1 (Homo sapiens, UniProt P28845)
# T1 construct: truncated (24-287aa) human 11β-HSD1 enzyme; made in house; host or cells: E. coli (lysate, not purified)
# Experiment: Human 11β-HSD1 enzymatic SPA assay
# Assay type: biochemical
# Conditions: truncated (24-287aa) human 11β-HSD1, apparent Ki from IC50 by Cheng-Prusoff
# Experimental: The ability of test compounds to inhibit human 11β-HSD1 enzymatic activity in vitro was evaluated in a Scintillation Proximity Assay (SPA). Tritiated-cortisone substrate, NADPH cofactor and titrated compound were incubated with truncated (24-287aa) human 11β-HSD1 enzyme at room temperature to allow the conversion to cortisol to occur. The reaction was stopped by adding a non-specific 11β-HSD inhibitor, glycyrrhetinic acid. The tritiated cortisol was captured by a mixture of an anti-cortisol monoclonal antibody and SPA beads coated with anti-mouse antibodies. The reaction plate was shaken at room temperature and the radiolabel bound to SPA beads was then measured on a scintillation counter. The 11β-HSD1 assay was carried out in 96-well microtiter plates in a total volume of […]. To start the assay, 188 μL of master mix which contained 75 nM ^3H-cortisone, 100 nM cortisone and 181 μM NADPH was added to the wells. In order to drive the reaction in the 11β-reductase direction, 1 mM glucose-6-phosphate (G-6-P) and 1 U/mL G-6-P dehydrogenase were also added as a NADPH generating system. Solid compound was dissolved in dimethyl sulfoxide to make a 10 mM stock followed by a subsequent 10-fold serial dilution with dimethyl sulfoxide. Each compound solution in dimethyl sulfoxide was 10-fold diluted in Tris/EDTA buffer (pH 7.4). 22 μL of titrated compound were then added in duplicate to the substrate. Reactions were initiated by the addition of 10 μL of 0.1 mg/mL E. coli lysates overexpressing 11β-HSD1 enzyme. After shaking and incubating plates for 30 minutes at room temperature, reactions were stopped by adding 10 μL of 1 mM glycyrrhetinic acid. The product, tritiated cortisol, was captured by adding 10 μL of 1 μM monoclonal mouse anti-cortisol antibodies and 50 μL of SPA beads coated with anti-mouse antibodies. After shaking for 30 minutes, plates were read in a Microbeta scintillation counter. Percent inhibition was calculated based on the background and the maximal signal. Wells that contained substrate without compound or enzyme were used as the background, while the wells that contained substrate and enzyme without any compound were considered as maximal signal. Percent of inhibition of each compound was calculated relative to the maximal signal and IC50 curves were generated. Assuming competitive inhibition the Cheng-Prusoff equation was used to calculate apparent Ki values from the IC50 values. This assay was applied to 11β-HSD2 as well, whereby 6 nM tritiated cortisol and 250 uM NAD^+ were used as substrate and cofactor, respectively.
# T1 sequence (P28845 24-287): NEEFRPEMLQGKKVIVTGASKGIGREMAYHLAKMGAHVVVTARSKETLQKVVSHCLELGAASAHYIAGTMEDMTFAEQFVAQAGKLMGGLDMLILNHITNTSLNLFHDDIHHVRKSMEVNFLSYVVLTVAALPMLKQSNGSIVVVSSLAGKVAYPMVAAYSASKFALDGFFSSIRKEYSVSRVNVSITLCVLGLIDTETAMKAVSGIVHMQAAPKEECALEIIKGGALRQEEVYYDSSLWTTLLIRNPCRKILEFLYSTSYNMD
row,Molecule,Ki
1,"CC(C)(Oc1ccccc1)C(=NC#N)NC12CCC(C#N)(CC1)C2 [Example 83, N′-cyano-N-(4-cyanobicyclo[2.2.1]hept-1-yl)-2-methyl-2-phenoxypropanimidamide]",100 to 1000 nM
2,"CC(C)(Oc1ccc(Cl)cn1)C(=NC#N)NC1C2CC3CC1CC(C#N)(C3)C2 (centres unmarked) [Example 59, (1E)-2-[(5-chloropyridin-2-yl)oxy]-N′-cyano-N-[(E)-5-cyanoadamantan-2-yl]-2-methylpropanimidamide]",100 to 1000 nM
3,"CC(C)(Oc1ccccc1)C(=NC#N)NC12CCC(C(N)=O)(CC1)C2 [Example 81, 4-{[N-cyano-2-methyl-2-phenoxypropanimidoyl]amino}bicyclo[2.2.1]heptane-1-carboxamide]",> 1000 nM
4,"CC(C)(Oc1ccc(Cl)cc1)C(=S)NC1C2CC3CC1CC(S(C)(=O)=O)(C3)C2 (centres unmarked) [Example 9, 2-(4-Chlorophenoxy)-2-methyl-N-[(E)-5-(methylsulfonyl)-2-adamantyl]propanethioamide]",10 to 100 nM
5,"CC(C)(Oc1ccc(F)cc1Cl)C(=NC#N)NC1C2CC3CC1CC(O)(C3)C2 (centres unmarked) [Example 1, (1E)-2-(2-Chloro-4-fluorophenoxy)-Y-cyano-N-[(E)-5-hydroxy-2-adamantyl]-2-methylpropanimidamide]",10 to 100 nM
6,"CC(C)(Cc1ccc(Cl)cc1)C(=NC#N)NC1C2CC3CC1CC(O)(C3)C2 (centres unmarked) [Example 23, (1E)-3-(4-Chlorophenyl)-N′-cyano-N-[(E)-5-hydroxy-2-adamantyl]-2,2-dimethyl propanimidamide]",100 to 1000 nM
7,"CC(C)(Oc1ccc(F)cc1F)/C(=N\C#N)N[C@@H]1[C@@H]2C[C@@H]3C[C@H]1C[C@@](C#N)(C3)C2 [Example 52, (1E)-N′-cyano-N-[(E)-5-cyanoadamantan-2-yl]-2-(2,4-difluorophenoxy)-2-methylpropanimidamide]",10 to 100 nM
8,CC(C)(Oc1ccc(Cl)cc1)C(=NC#N)NC12CC3CC(CC(C3)C1)C2 [Example 43],10 to 100 nM
9,"N#CN=C(Cc1ccc(F)cc1F)NC1C2CC3CC1CC(O)(C3)C2 (centres unmarked) [Example 4, (1E)-N′-Cyano-2-(2,4-difluorophenyl)-N-[(E)-5-hydroxy-2-adamantyl]ethanimidamide]",> 1000 nM
10,"CC(C)(Oc1ccc(Cl)cn1)C(=NC#N)NC1C2CC3CC1CC(S(C)(=O)=O)(C3)C2 (centres unmarked) [Example 67, (1E)-2-[(5-chloropyridin-2-yl)oxy]-N-cyano-2-methyl-N-[(E)-5-(methylsulfonyl)adamantan-2-yl]propanimidamide]",100 to 1000 nM
11,"CC(C)(Oc1ccccc1)C(=NC#N)NC12CCC(C(N)=O)(CC1)CC2 [Example 82, 4-{[N-cyano-2-methyl-2-phenoxypropanimidoyl]amino}bicyclo[2.2.2]octane-1-carboxamide]",10 to 100 nM
12,"CC(C)(Oc1ccccc1F)/C(=N\C#N)NC1C2CC3CC1CC(C#N)(C3)C2 (centres unmarked) [Example 78, (1E)-N′-cyano-N-[(E)-5-cyanoadamantan-2-yl]-2-(2-fluorophenoxy)-2-methylpropanimidamide]",10 to 100 nM
13,"CC(C)(Oc1ccc(F)cc1F)C(=NC#N)NC1CCCCCCC1 [Example 65, N′-cyano-N-cyclooctyl-2-(2,4-difluorophenoxy)-2-methylpropanimidamide]",100 to 1000 nM
14,"CC(C)(Oc1ccccc1)C(=NC#N)NC12CCC(C(F)F)(CC1)C2 [Example 89, N′-cyano-N-[4-(difluoromethyl)bicyclo[2.2.1]hept-1-yl]-2-methyl-2-phenoxypropanimidamide]",10 to 100 nM
15,"CC(C)(Oc1ccc(Cl)cc1F)C(=NC#N)NC1CCCCCCC1 [Example 61, 2-(4-chloro-2-fluorophenoxy)-N′-cyano-N-cyclooctyl-2-methylpropanimidamide]",100 to 1000 nM
16,"COC(=O)C12CC3CC(C1)C(N/C(=N/C#N)C(C)(C)Oc1ccc(Cl)cc1F)C(C3)C2 (centres unmarked) [Example 63, methyl(E)-4-{[(1E)-2-(4-chloro-2-fluorophenoxy)-N-cyano-2-methylpropanimidoyl]amino}adamantane-1-carboxylate]",10 to 100 nM
17,"N#CN=C(COc1ccc(Cl)cc1)NC1C2CC3CC1CC(O)(C3)C2 (centres unmarked) [Example 7, (1E)-2-(4-Chlorophenoxy)-N′-cyano-N-[(E)-5-hydroxy-2-adamantyl]ethanimidamide]",> 1000 nM
18,"CC(C)(Oc1ccc(Cl)cc1)C(=NC#N)NC1C2CC3CC1CC(S(N)(=O)=O)(C3)C2 (centres unmarked) [Example 10, (1E)-N-[(E)-5-(Aminosulfonyl)-2-adamantyl]-2-(4-chlorophenoxy)-N′-cyano-2-methylpropanimidamide]",100 to 1000 nM
19,"CC(C)(Cc1ccc(Cl)cc1)C(=N)NC1C2CC3CC1CC(O)(C3)C2 (centres unmarked) [Example 22, 3-(4-Chlorophenyl)-N-[(E)-5-hydroxy-2-adamantyl]-2,2-dimethylpropanimidamide]",> 1000 nM
20,"CC(C)(Oc1ccc(Cl)cc1)C(=NC#N)NC12CCC(C(N)=O)(CC1)C2 [Example 88, 4-{[2-(4-chlorophenoxy)-N-cyano-2-methylpropanimidoyl]amino}bicyclo[2.2.1]heptane-1-carboxamide]",100 to 1000 nM
21,"CC(C)(Oc1ccc(Cl)cc1)/C(=N\C#N)NC12CC3CC(CC1C3)C2 [Example 38, (1E)-2-(4-Chlorophenoxy)-N′-cyano-N-hexahydro-2,5-methanopentalen-3a(1H)-yl-2-methylpropanimidamide]",10 to 100 nM
22,"CC(C)(Oc1ccc(Cl)cc1)C(=NC#N)NC1CCCCCCC1 [Example 41, 2-(4-Chlorophenoxy)-N′-cyano-N-cyclooctyl-2-methylpropanimidamide]",10 to 100 nM
23,"CC(C)(Oc1ccc(Cl)cc1F)/C(=N\C#N)NC1CN2CCC1CC2 (centres unmarked) [Example 72, (1E)-N-(1-azabicyclo[2.2.2]oct-3-yl)-2-(4-chloro-2-fluorophenoxy)-N′-cyano-2-methylpropanimidamide]",> 1000 nM
24,"[H]/N=C(/NC1C2CC3CC1CC(C(N)=O)(C3)C2)C(C)(C)Oc1ccccc1 (centres unmarked) [Example 76, (E)-4-[(2-methyl-2-phenoxypropanimidoyl)amino]adamantane-1-carboxamide]",> 1000 nM

# Now from value to molecule:
row,Ki,Molecule
1,10 to 100 nM,"CC(C)(OCc1ccc(C(F)(F)F)cc1)C(=NC#N)NC1C2CC3CC1CC(C(=O)O)(C3)C2 (centres unmarked) [Example 24, (E)-4-[((1E)-N-Cyano-2-methyl-2-{[4-(trifluoromethyl)benzyl]oxy}propanimidoyl)amino]adamantane-1-carboxylic acid]"
2,≤ 10 nM,"CC(C)(Oc1ccccc1)/C(=N\C#N)NC1C2CC3CC1CC(S(C)(=O)=O)(C3)C2 (centres unmarked) [Example 64, (1E)-N-cyano-2-methyl-N-[(E)-5-(methylsulfonyl)adamantan-2-yl]-2-phenoxypropanimidamide]"
3,10 to 100 nM,"(1E)-N-(adamantan-1-yl)-N-cyano-2-(2,4-difluorophenoxy)-2-methylpropanimidamide [Example 71]"
4,10 to 100 nM,"CC(C)(Oc1ccccc1F)C(=NC#N)NC1C2CC3CC1CC(S(N)(=O)=O)(C3)C2 (centres unmarked) [Example 79, (1E)-N′-cyano-2-(2-fluorophenoxy)-2-methyl-N-[(E)-5-sulfamoyladamantan-2-yl]propanimidamide]"
5,10 to 100 nM,CC(C)(Oc1ccc(F)cc1F)C(=NC#N)NC12CC3CC(CC1C3)C2 [Example 69]
6,10 to 100 nM,"CC(C)(OCc1ccc(C(F)(F)F)cc1)/C(=N\C#N)N[C@@H]1[C@@H]2C[C@@H]3C[C@H]1C[C@@](C(N)=O)(C3)C2 [Example 25, (E)-4-[((1E)-N-Cyano-2-methyl-2-{[4-(trifluoromethyl)benzyl]oxy}propanimidoyl)amino]adamantane-1-carboxamide]"
7,10 to 100 nM,CC(C)(Oc1ccc(Cl)cc1F)C(=NC#N)NC12CC3CC(CC(C3)C1)C2 [Example 60]
8,≤ 10 nM,"CC(C)(Oc1ccc(F)cc1F)C(=NC#N)NC1C2CC3CC1CC(S(C)(=O)=O)(C3)C2 (centres unmarked) [Example 45, (1E)-N′-cyano-2-(2,4-difluorophenoxy)-2-methyl-N-[(E)-5-(methylsulfonyl)adamantan-2-yl]propanimidamide]"
9,≤ 10 nM,"CC(C)(Oc1ccc(Cl)cc1F)/C(=N\C#N)NC1C2CC3CC1CC(C(N)=O)(C3)C2 (centres unmarked) [Example 74, (E)-4-{[(1E)-2-(4-chloro-2-fluorophenoxy)-N-cyano-2-methylpropanimidoyl]amino}adamantane-1-carboxamide]"
10,≤ 10 nM,"CC(C)(Oc1ccc(Cl)cc1)C(=NC#N)NC1C2CC3CC1CC(O)(C3)C2 (centres unmarked) [Example 8, (1E)-2-(4-Chlorophenoxy)-N′-cyano-N-[(E)-5-hydroxy-2-adamantyl]-2-methylpropanimidamide]"
11,≤ 10 nM,"CC(C)(Oc1ccc(F)cc1F)C(=NC#N)NC1CC2CCC1C2 (stereo not drawn) [Example 56, N-[(exo)-bicyclo[2.2.1]hept-2-yl]-N-cyano-2-(2,4-difluorophenoxy)-2-methylpropanimidamide]"
